{"source": "patent US20040022789A1", "about": "“Methods and compositions for treating T cell mediated inflammatory/autoimmune diseases and disorders in subjects having a glucocorticoid regulation deficiency” (The Washington University, priority 2002, published 2004)", "type_in_all_cases": "in vivo", "key": {"TGRko mice": {"test_system": "TGRko mice", "assay": "Mortality of TGRko mice after polyclonal T cell activation with anti-CD3ε antibody", "conditions": "100 μg anti-CD3ε antibody i.p., treatment before (and after) challenge", "protocol": "(§1) Animal husbandry and plasma sampling: Mice were housed on a 12 h/12 h light/dark cycle with ad libitum access to rodent chow. Blood for measurement of corticosterone and cytokines was obtained by rapid retroorbital phlebotomy into heparinized capillary tubes with a total time from first handling the animal to completion of bleeding not exceeding 30 s. Plasma was separated by centrifugation and stored at −80° C. until assay. Unless otherwise noted, all mice used were 6-10 weeks old and of a C57BL/6×129/Sv genetic background.\nGeneration of TGRko mice: To build a TGRko targeting vector (pGRloxPneo), a loxP site was inserted into the unique Sac I site in the GR gene region upstream of exon 2 between exons 1B and 1C. A PGKneo (gene encoding for resistance to neomycin) cassette was then subcloned containing flanking loxP sites into intron 2 of the GR gene using oligonucleotide linkers. To obtain ES clones having replaced one copy of the endogenous murine GR locus with the GRloxPneo allele, TC1 ES cells were electroporated in the presence of linearized pGRloxPneo as has previously been described (See, e.g., Muglia, L. J. et al., J. Clin. Invest., 93:2066-2072 (1994)). DNA from 87 G418 resistant embryonic stem cell (ES) clones was analyzed by Southern blot, employing a probe external to the flanking regions within our targeting vector. […]"}, "control mice": {"test_system": "control mice", "assay": "Mortality after anti-CD3ε antibody in control mice pre-treated with mifepristone (GR antagonist)", "protocol": "as §1\n(§2) Pharmacologic and antibody treatment: Mice were injected intraperitoneally 100 μg anti-CD3p antibody (145-2C11) diluted in 250 μl PBS. Dexamethasone-treated mice were injected intraperitoneally with 200 μg dexamethasone phosphate just prior to and eight hours after anti-CD3ε antibody challenge. Neutralizing anti-IFNγ antibody (H22, 50 μg) was injected intraperitoneally one day before anti-CD3ε antibody administration as described previously. See, e.g., Ferran, C. et al., Eur. J. Immunol, 21:2349-2353 (1991). Mifepristone (RU 486, Sigma) was dissolved in 100% ethanol (50 mg/ml). Mifepristone-treated mice were given 0.5 mg (diluted in sesame oil) s.c. the night before and one hour prior to inflammatory challenge. […]"}, "[1]": {"test_system": "adrenalectomized control mice", "assay": "Mortality after anti-CD3ε antibody in adrenalectomized control mice", "protocol": "Adrenalectomy: Mice were adrenalectomized as previously described and rested one week before being subjected to experimentation. See, e.g., Muglia, L. J. et al, J. Clin. Invest., 105:1269-1277 (2000).\nPharmacologic and antibody treatment: Mice were injected intraperitoneally 100 μg anti-CD3p antibody (145-2C11) diluted in 250 μl PBS. Dexamethasone-treated mice were injected intraperitoneally with 200 μg dexamethasone phosphate just prior to and eight hours after anti-CD3ε antibody challenge. Neutralizing anti-IFNγ antibody (H22, 50 μg) was injected intraperitoneally one day before anti-CD3ε antibody administration as described previously. See, e.g., Ferran, C. et al., Eur. J. Immunol, 21:2349-2353 (1991). Mifepristone (RU 486, Sigma) was dissolved in 100% ethanol (50 mg/ml). Mifepristone-treated mice were given 0.5 mg (diluted in sesame oil) s.c. the night before and one hour prior to inflammatory challenge. Cox-2 selective inhibitor-treated mice were given 300 μg of either SC-236 or NS-398 suspended in PBS/1% Tween-80 or vehicle twice a day for two days by oral gavage as previously described by Gross, G. et al, Am J. Physiol. Regul. Integr. Comp. Physiol., 278:R^1415-R^1423 (2000)."}, "IL-2": {"test_system": "IL-2", "assay": "Plasma IL-2 after anti-CD3ε antibody (ELISA)", "conditions": "TGRko mice; dexamethasone 200 μg before and 8 hours after anti-CD3ε antibody", "protocol": "as §1\nCytokine Measurements: Plasma cytokines were measured according to manufacturer's instructions (Pharmingen).\nas §2"}}, "data": [{"smiles": "NS(=O)(=O)c1ccc(-n2nc(C(F)(F)F)cc2-c2ccc(Cl)cc2)cc1", "note": "[SC-236]", "values": [{"measurement": "mortality / lethality after anti-CD3ε antibody administration", "setting": "TGRko mice", "value": "Protection from lethality"}, {"measurement": "protection from mortality", "setting": "control mice; control mice treated with mifepristone+SC-236 (m/s) compared to vehicle-treated counterparts", "value": "significantly protected"}, {"measurement": "mice died within eight hours of anti-CD3ε antibody treatment", "setting": "[1]; ADX+SC-236 (ADX+vehicle 4/5, Sham operated+vehicle 0/3)", "value": "2/6"}, {"measurement": "rescue from mortality", "setting": "[1]; adrenalectomized control mice, shorter timescale", "value": "essentially the same degree of rescue"}]}, {"smiles": "C[C@@H]1C[C@H]2[C@@H]3CCC4=CC(=O)C=C[C@]4(C)[C@@]3(F)[C@@H](O)C[C@]2(C)[C@@]1(O)C(=O)CO", "note": "[dexamethasone]", "values": [{"measurement": "plasma IL-2", "setting": "IL-2", "value": "no significant effect"}]}, {"smiles": "CC#C[C@]1(O)CC[C@H]2[C@@H]3CCC4=CC(=O)CCC4=C3[C@@H](c3ccc(N(C)C)cc3)C[C@@]21C", "note": "[mifepristone]", "values": [{"measurement": "susceptibility to the lethal effects of T cell activation", "setting": "control mice; control mice, mifepristone+vehicle (m/v) compared to vehicle controls (v/v)", "value": "significantly more susceptible"}]}]}
